Reference: paper PMC10976173, “Synthesis of 5-Benzylamino and 5-Alkylamino-Substituted Pyrimido[4,5-c]quinoline Derivatives as CSNK2A Inhibitors with Antiviral Activity” (Pharmaceuticals, 2024)
Converted amounts (≈) assume the structure as drawn.

Legend:
CSNK2A (CSNK2A2-NLuc) = biological target: T1, CSNK2A (CSNK2A2-NLuc) (Homo sapiens, UniProt P19784); experiment: In-cell CSNK2A target engagement by NanoBRET assay; assay type: cell-based; conditions: for IC50: In-cell target engagement by NanoBRET assay, HEK293 cells; for Designation: active / inactive analogs with 10-fold differences in IC50; for fold increase in CSNK2A potency: compared to 4q; for fold decrease in CSNK2A potency: compared to the parent compounds (4s and 4w)
T1 construct: expressed in transfected cells; host or cells: HEK293
Description: A transfection complex of DNA at 10 µg/mL was created, consisting of 9 µg/mL of carrier DNA (Promega, Madison, WI, USA) and 1 µg/mL of CSNK2A2-NLuc fusion DNA in Opti-MEM without serum (Gibco). FuGENE HD (Promega) was added at 30 µL/mL to form a lipid/DNA complex. The solution was then mixed and incubated at room temperature for 20 min. […] The following day, the media was removed via aspiration and replaced with 85 μL of Opti-MEM without phenol red. A total of 5 μL per well of 20×-NanoBRET Tracer K10 (Promega) at 5 μM in Tracer Dilution Buffer (Promega N291B) was added to all wells, except the “no tracer” control wells. Test compounds (10 mM in DMSO) were diluted 100× in Opti-MEM media to prepare stock solutions and evaluated at eleven concentrations. A total of 10 μL per well of the 10-fold test compound stock solutions (final assay concentration of 0.1% DMSO) was added. […] 96-well plates containing cells with NanoBRET Tracer K10 and test compounds (100 µL total volume per well) were equilibrated (37 °C/5% CO2) for 2 h. The plates were cooled to room temperature for 15 min. […] A total of 50 μL of the 3× substrate/extracellular NL inhibitor were added to each well. The plates were read within 30 min on a GloMax Discover luminometer (Promega) equipped with 450 nm BP filter (donor) and 600 nm LP filter (acceptor) using 0.3 s integration time. Raw milliBRET (mBRET) values were obtained by dividing the acceptor emission values (600 nm) by the donor emission values (450 nm) and multiplying by 1000. […] The data were first normalized and then fit using Sigmoidal, 4PL binding curve in GraphPad Prism version 9.5.1 to determine IC50 values (Figure S1).

[1] = Kinetic solubility in PBS pH 7.4; assay type: physicochemical; conditions: phosphate-buffered saline, pH 7.4, aqueous buffer, kinetic from dmso stock, PBS pH 7.4, 24 h
Description: Kinetic solubility assay was conducted using 10 mM DMSO stocks of compounds in phosphate-buffered saline solution (PBS) at pH 7.4 by Analiza, Inc., Cleveland, OH, USA. […] The calculated values were corrected for the background nitrogen in the media and DMSO.

[2] = tested on: Mouse Hepatitis Virus (MHV); experiment: microbe, parasite or virus in culture; assay type: cell-based; conditions: Murine coronavirus; Inhibition of MHV-NLuc in DBT cells; read-out: MHV IC50

T1 sequence (P19784 whole entry): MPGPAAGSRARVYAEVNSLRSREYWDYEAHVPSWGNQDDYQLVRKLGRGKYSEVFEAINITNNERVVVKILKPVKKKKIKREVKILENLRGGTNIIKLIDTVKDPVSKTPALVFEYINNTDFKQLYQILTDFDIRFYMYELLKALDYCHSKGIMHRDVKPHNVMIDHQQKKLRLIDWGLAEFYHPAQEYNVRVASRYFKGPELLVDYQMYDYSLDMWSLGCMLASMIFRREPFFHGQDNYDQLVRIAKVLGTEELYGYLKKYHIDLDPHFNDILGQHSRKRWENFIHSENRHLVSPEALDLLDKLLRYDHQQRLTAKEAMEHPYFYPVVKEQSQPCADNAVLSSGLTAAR

SMILES | IC50 (CSNK2A (CSNK2A2-NLuc)) | solubility at 24 h [1] | melting point | Designation (CSNK2A (CSNK2A2-NLuc)) | fold less active on CSNK2A (CSNK2A (CSNK2A2-NLuc); compared to unmethylated parent amine 4t) | fold increase in CSNK2A potency (CSNK2A (CSNK2A2-NLuc)) | fold decrease in CSNK2A potency (CSNK2A (CSNK2A2-NLuc)) | IC50 [2]
O=C(O)c1ccc2c(c1)nc(NCC1CCC(F)(F)CC1)c1ncncc12 [Compound 4aa, 5-(((4,4-difluorocyclohexyl)methyl)amino)pyrimido[4,5-c]quinoline-8-carboxylic acid] | 0.19 µM | 180 µM (≈ 67 µg/mL) | 288 to 291 °C | – | – | – | – | 10 µM
CN1CCC(CNc2nc3cc(C(=O)O)ccc3c3cncnc23)CC1 [Compound 4ab, 5-(((1-methylpiperidin-4-yl)methyl)amino)pyrimido[4,5-c]quinoline-8-carboxylic acid] | 48.7 µM | 220 µM (≈ 77.3 µg/mL) | 205 to 208 °C | – | – | – | – | –
CN(CC1CCCCC1)c1nc2cc(C(=O)O)ccc2c2cncnc12 [Compound 4ad, 5-((cyclohexylmethyl)(methyl)amino)pyrimido[4,5-c]quinoline-8-carboxylic acid] | 2.4 µM | 200 µM (≈ 70.1 µg/mL) | 229 to 231 °C | Inactive | 17 fold | – | – | –
CC(Nc1nc2cc(C(=O)O)ccc2c2cncnc12)c1ccccc1 (stereo not drawn) [Compound 4ae, 5-((1-phenylethyl)amino)pyrimido[4,5-c]quinoline-8-carboxylic acid] | 1.9 µM | 180 µM (≈ 62 µg/mL) | 228 to 232 °C | Inactive | – | – | – | –
O=C(O)c1ccc2c(c1)nc(NC1CCc3ccccc31)c1ncncc12 (stereo not drawn) [Compound 4af, 5-((2,3-dihydro-1H-inden-1-yl)amino)pyrimido[4,5-c]quinoline-8-carboxylic acid] | 0.23 µM | 160 µM (≈ 57 µg/mL) | 270 to 273 °C | Active | – | – | – | 22 µM
O=C(O)c1ccc2c(c1)nc(N[C@@H]1CCc3ccccc31)c1ncncc12 [Compound 4ah, (R)-5-((2,3-dihydro-1H-inden-1-yl)amino)pyrimido[4,5-c]quinoline-8-carboxylic acid] | > 10 µM | – | 260 to 262 °C | – | – | – | – | –
O=C(O)c1ccc2c(c1)nc(NCc1ccc(Cl)cc1)c1ncncc12 [Compound 4c, 5-((4-chlorobenzyl)amino)pyrimido[4,5-c]quinoline-8-carboxylic acid] | 0.13 µM | 160 µM (≈ 58.4 µg/mL) | 203 to 205 °C | – | – | – | – | 13 µM
O=C(O)c1ccc2c(c1)nc(NCc1ccc(F)cc1)c1ncncc12 [Compound 4g, 5-((4-fluorobenzyl)amino)pyrimido[4,5-c]quinoline-8-carboxylic acid] | 0.15 µM | 180 µM (≈ 62.7 µg/mL) | 235 to 238 °C | – | – | – | – | 10 µM
O=C(O)c1ccc2c(c1)nc(NCc1ccc(-c3ccc(Cl)cc3)cc1)c1ncncc12 [Compound 4l, 5-(((4′-chloro-[1,1′-biphenyl]-4-yl)methyl)amino)pyrimido[4,5-c]quinoline-8-carboxylic acid] | 1.9 µM | < 1 µM | 246 to 248 °C | – | – | – | – | –
O=C(O)c1ccc2c(c1)nc(NCc1ccccn1)c1ncncc12 [Compound 4n, 5-((pyridin-2-ylmethyl)amino)pyrimido[4,5-c]quinoline-8-carboxylic acid] | 8 µM | 140 µM (≈ 46.4 µg/mL) | 250 to 254 °C | – | – | – | – | –
O=C(O)c1ccc2c(c1)nc(NCc1cccnc1)c1ncncc12 [Compound 4o, 5-((pyridin-3-ylmethyl)amino)pyrimido[4,5-c]quinoline-8-carboxylic acid] | 6 µM | 200 µM (≈ 66.3 µg/mL) | 270 to 274 °C | – | – | – | – | –
O=C(O)c1ccc2c(c1)nc(NCc1ccncc1)c1ncncc12 [Compound 4p, 5-((pyridin-4-ylmethyl)amino)pyrimido[4,5-c]quinoline-8-carboxylic acid] | 14 µM | 200 µM (≈ 66.3 µg/mL) | 274 to 276 °C | – | – | – | – | –
O=C(O)c1ccc2c(c1)nc(NCC1CCOC1)c1ncncc12 (stereo not drawn) [Compound 4y, 5-(((tetrahydrofuran-3-yl)methyl)amino)pyrimido[4,5-c]quinoline-8-carboxylic acid] | 3.1 µM | 140 µM (≈ 45.4 µg/mL) | 160 to 164 °C | – | – | – | 10 fold | –
O=C(O)c1ccc2c(c1)nc(NCC13CCC(CC1)O3)c1ncncc12 [Compound 4z, 5-(((7-oxabicyclo[2.2.1]heptan-1-yl)methyl)amino)pyrimido[4,5-c]quinoline-8-carboxylic acid] | 1.4 µM | 220 µM (≈ 77.1 µg/mL) | 280 to 284 °C | – | – | – | 10 fold | –

Continued by falling IC50 (CSNK2A (CSNK2A2-NLuc)), values first:

IC50 (CSNK2A (CSNK2A2-NLuc)) | solubility at 24 h [1] | melting point | Designation (CSNK2A (CSNK2A2-NLuc)) | fold less active on CSNK2A (CSNK2A (CSNK2A2-NLuc); compared to unmethylated parent amine 4t) | fold increase in CSNK2A potency (CSNK2A (CSNK2A2-NLuc)) | fold decrease in CSNK2A potency (CSNK2A (CSNK2A2-NLuc)) | SMILES | IC50 [2]
1.2 µM | 160 µM (≈ 57 µg/mL) | 204 to 208 °C | Inactive | – | – | – | O=C(O)c1ccc2c(c1)nc(N1CCc3ccccc3C1)c1ncncc12 [Compound 4ai, 5-(3,4-dihydroisoquinolin-2(1H)-yl)pyrimido[4,5-c]quinoline-8-carboxylic acid] | –
1.2 µM | 170 µM (≈ 50.4 µg/mL) | 270 to 273 °C | – | – | – | – | CC(C)CNc1nc2cc(C(=O)O)ccc2c2cncnc12 [Compound 4q, 5-(isobutylamino)pyrimido[4,5-c]quinoline-8-carboxylic acid] | –
1 µM | 140 µM (≈ 50.5 µg/mL) | 230 to 233 °C | – | – | – | – | COc1ccccc1CNc1nc2cc(C(=O)O)ccc2c2cncnc12 [Compound 4d, 5-((2-methoxybenzyl)amino)pyrimido[4,5-c]quinoline-8-carboxylic acid] | –
0.87 µM | 190 µM (≈ 59 µg/mL) | 282 to 285 °C | – | – | – | – | CC(C)(C)CNc1nc2cc(C(=O)O)ccc2c2cncnc12 [Compound 4v, 5-(neopentylamino)pyrimido[4,5-c]quinoline-8-carboxylic acid] | –
0.64 µM | 160 µM (≈ 63.7 µg/mL) | 245 to 248 °C | – | – | – | – | O=C(O)c1ccc2c(c1)nc(NCc1ccc(C(F)(F)F)cc1)c1ncncc12 [Compound 4j, 5-((4-(trifluoromethyl)benzyl)amino)pyrimido[4,5-c]quinoline-8-carboxylic acid] | –
0.6 µM | 170 µM (≈ 61.3 µg/mL) | 210 to 214 °C | – | – | – | – | COc1cccc(CNc2nc3cc(C(=O)O)ccc3c3cncnc23)c1 [Compound 4e, 5-((3-methoxybenzyl)amino)pyrimido[4,5-c]quinoline-8-carboxylic acid] | –
0.53 µM | 160 µM (≈ 56.9 µg/mL) | 270 to 275 °C | – | – | – | – | N#Cc1ccc(CNc2nc3cc(C(=O)O)ccc3c3cncnc23)cc1 [Compound 4k, 5-((4-cyanobenzyl)amino)pyrimido[4,5-c]quinoline-8-carboxylic acid] | –
0.5 µM | 5 µM (≈ 1.9 µg/mL) | 250 to 253 °C | – | – | – | – | O=C(O)c1ccc2c(c1)nc(NCc1ccc3ccccc3c1)c1ncncc12 [Compound 4m, 5-((naphthalen-2-ylmethyl)amino)pyrimido[4,5-c]quinoline-8-carboxylic acid] | –
0.47 µM | 150 µM (≈ 57.1 µg/mL) | 250 to 255 °C | – | – | – | – | O=C(O)c1ccc2c(c1)nc(NCc1ccc(C(F)F)cc1)c1ncncc12 [Compound 4i, 5-((4-(difluoromethyl)benzyl)amino)pyrimido[4,5-c]quinoline-8-carboxylic acid] | –
0.41 µM | 220 µM (≈ 67.8 µg/mL) | 265 to 268 °C | – | – | 3 fold | – | O=C(O)c1ccc2c(c1)nc(NCC1CCC1)c1ncncc12 [Compound 4r, 5-((cyclobutylmethyl)amino)pyrimido[4,5-c]quinoline-8-carboxylic acid] | –
0.37 µM | 150 µM (≈ 54.7 µg/mL) | 240 to 243 °C | – | – | – | – | O=C(O)c1ccc2c(c1)nc(NCc1cccc(Cl)c1)c1ncncc12 [Compound 4b, 5-((3-chlorobenzyl)amino)pyrimido[4,5-c]quinoline-8-carboxylic acid] | –
0.34 µM | 170 µM (≈ 58.5 µg/mL) | 201 to 204 °C | – | – | – | – | Cc1ccc(CNc2nc3cc(C(=O)O)ccc3c3cncnc23)cc1 [Compound 4h, 5-((4-methylbenzyl)amino)pyrimido[4,5-c]quinoline-8-carboxylic acid] | –
0.32 µM | 210 µM (≈ 67.7 µg/mL) | 261 to 264 °C | – | – | 3 fold | – | O=C(O)c1ccc2c(c1)nc(NCC1CCCC1)c1ncncc12 [Compound 4s, 5-((cyclopentylmethyl)amino)pyrimido[4,5-c]quinoline-8-carboxylic acid] | –
0.3 µM | – | 252 to 255 °C | – | – | – | – | O=C(O)c1ccc2c(c1)nc(N[C@H]1CCc3ccccc31)c1ncncc12 [Compound 4ag, (S)-5-((2,3-dihydro-1H-inden-1-yl)amino)pyrimido[4,5-c]quinoline-8-carboxylic acid] | –
0.29 µM | 140 µM (≈ 51.1 µg/mL) | 193 to 198 °C | – | – | – | – | O=C(O)c1ccc2c(c1)nc(NCc1ccccc1Cl)c1ncncc12 [Compound 4a, 5-((2-chlorobenzyl)amino)pyrimido[4,5-c]quinoline-8-carboxylic acid] | –
0.28 µM | 160 µM (≈ 57.7 µg/mL) | 246 to 247 °C | – | – | – | – | COc1ccc(CNc2nc3cc(C(=O)O)ccc3c3cncnc23)cc1 [Compound 4f, 5-((4-methoxybenzyl)amino)pyrimido[4,5-c]quinoline-8-carboxylic acid] | –
0.25 µM | 180 µM (≈ 62 µg/mL) | 200 to 204 °C | Active | – | – | – | CN(Cc1ccccc1)c1nc2cc(C(=O)O)ccc2c2cncnc12 [Compound 4ac, 5-(benzyl(methyl)amino)pyrimido[4,5-c]quinoline-8-carboxylic acid] | –
